Data taken from patent US20220370486A1, “COMBINATION TREATMENT OF SYSTEMIC FUNGAL INFECTIONS” (The Board of Trustees of the University of Illinois, priority 2019, published 2022).
Where two headings read alike, the source gives them in different places.

Experiments:
Test in all cases: Checkerboard broth microdilution (CLSI)
Type in all cases: cell-based
C. tropicalis 1046709 = conditions: Candida tropicalis; single agent; isolate 1046709
Description: (§1) Isolates were tested against varying concentrations of amphotericin B and C2′epiAmB (range, 0.06 to 4 mg/L) and combined with fluconazole (range, 0.12 to 128 mg/L) or ketoconazole (range 0.008 to 8 mg/L) or voriconazole (range, 0.004 to 4 mg/L) using a checkerboard grid design following the Clinical and Laboratory Standards Institute (CLSI) broth microdilution method (M23Ed5).

C. albicans 967374 = conditions: Candida albicans, single agent; isolate 967374; read-out: MIC
Description: as §1

C. krusei ATCC 6258 = conditions: Pichia kudriavzevii, ATCC6258, single agent; isolate ATCC 6258; read-out: MIC
Description: as §1

C. parapsilosis 1048737 = conditions: single agent, isolate 1048737
Description: as §1

C. glabrata 1046695 = conditions: Nakaseomyces glabratus, single agent, isolate 1046695
Description: as §1

[1] = system: C. parapsilosis ATCC 22019; conditions: isolate ATCC 22019
Description: as §1

C. krusei 975691 = system: C. krusei 975691
Description: as §1

C. auris 1081160 = conditions: Candidozyma auris, single agent, isolate 1081160
Description: as §1

F. oxysporum SC 1087597 = conditions: Fusarium oxysporum; single agent; isolate 1087597
Description: as §1

[2] = system: A. fumigatus ATCC MYA-3626; conditions: single agent, isolate ATCC MYA-3626
Description: as §1

A. flavus SC 1085986 = conditions: Aspergillus flavus; single agent; isolate 1085986
Description: as §1

F. solani SC 1047542 = conditions: Fusarium solani; single agent; isolate 1047542
Description: as §1

A. flavus ATCC 204304 = conditions: Aspergillus flavus, ATCC204304; single agent; isolate ATCC 204304
Description: as §1

A. fumigatus 1077391 = conditions: Aspergillus fumigatus; single agent; isolate 1077391
Description: as §1

[3] = Lodderomyces parapsilosis, read-out: MIC
[4] = Lodderomyces parapsilosis, ATCC22019, single agent, read-out: MIC
[5] = Aspergillus fumigatus, read-out: MIC
[6] = Pichia kudriavzevii, single agent, isolate 975691, read-out: MIC

| MIC (C. tropicalis 1046709) [µg/mL] | MIC (C. albicans 967374) [µg/mL] | MIC (C. krusei ATCC 6258) [µg/mL] | MIC (C. parapsilosis 1048737; [3]) [µg/mL] | MIC (C. parapsilosis 1048737) [µg/mL] | MIC [1, 4] [µg/mL] | MIC (F. oxysporum SC 1087597) [µg/mL] | MIC [2, 5] [µg/mL] | MIC (A. flavus SC 1085986) [µg/mL] | MIC (C. glabrata 1046695; read-out: MIC) [µg/mL] | MIC (F. solani SC 1047542) [µg/mL] | MIC (C. krusei 975691; [6]) [µg/mL] | MIC (A. flavus ATCC 204304) [µg/mL] | MIC (C. auris 1081160; read-out: MIC) [µg/mL] | MIC (A. fumigatus 1077391) [µg/mL] | Compound | also measured |
| --- | --- | --- | --- | --- | --- | --- | --- | --- | --- | --- | --- | --- | --- | --- | --- | --- |
| 0.12 | 0.25 | 0.25 | 0.015 | 0.03 | 0.06 | > 8 | 8 | 4 | 4 | > 8 | 1 | 2 | 0.5 | > 8 | CC(=O)N1CCN(c2ccc(OCC3COC(Cn4ccnc4)(c4ccc(Cl)cc4Cl)O3)cc2)CC1 (stereo not drawn) [Ketoconazole, ketoconazole] | MIC [2]: >8 µg/mL; MIC (C. krusei 975691; single agent, isolate 975691): 2 µg/mL |
| 0.12 | 0.25 | 0.25 | 0.008 | 0.015 | 0.03 | 4 | 0.5 | 1 | 4 | 4 | 4 | 1 | 1 | 2 | C[C@@H](c1ncncc1F)[C@](O)(Cn1cncn1)c1ccc(F)cc1F [Voriconazole, voriconazole] |  |

| Compound | MIC (C. tropicalis 1046709) [µg/mL] | MIC (C. albicans 967374) [µg/mL] | MIC (C. krusei ATCC 6258) [µg/mL] | MIC (C. parapsilosis 1048737; [3]) [µg/mL] | MIC (C. parapsilosis 1048737) [µg/mL] | MIC [1, 4] [µg/mL] | MIC (F. oxysporum SC 1087597) [µg/mL] | MIC [2, 5] [µg/mL] | MIC (A. flavus SC 1085986) [µg/mL] | MIC (C. glabrata 1046695; read-out: MIC) [µg/mL] | MIC (F. solani SC 1047542) [µg/mL] | MIC (C. krusei 975691; [6]) [µg/mL] | MIC (A. flavus ATCC 204304) [µg/mL] | MIC (C. auris 1081160; read-out: MIC) [µg/mL] | MIC (A. fumigatus 1077391) [µg/mL] | also measured |
| --- | --- | --- | --- | --- | --- | --- | --- | --- | --- | --- | --- | --- | --- | --- | --- | --- |
| OC(Cn1cncn1)(Cn1cncn1)c1ccc(F)cc1F [Fluconazole, fluconazole] | 4 | 16 | 32 | 0.5 | 1 | 1 |  |  |  |  |  |  |  |  |  | MIC (C. glabrata 1046695): 128 µg/mL; MIC ([1]; single agent): 2 µg/mL; MIC (C. krusei 975691; Pichia kudriavzevii): 128 µg/mL; MIC (C. auris 1081160): > 128 µg/mL |
